Assay: Recovery and hydrolysis of the (pro-)drugs in nanobiologics
Assay type: physicochemical
Settings: 4° C. in PBS
Experimental: From 10 mg/ml stock solutions in chloroform, 1-palmitoyl-2-oleoyl-sn-glycero-3-phosphocholine (POPC, 250 μL), 1-palmitoyl-2-hydroxy-sn-glycero-3-phosphocholine (PHPC, 65 μL), cholesterol (15 μL), tricaprylin (1000 μL) and (pro-)drug (65 μL), were combined in a 20 ml vial and dried under vacuum. The resulting film was redissolved in a acetonitrile:methanol mixture (95%: 5%, 3 mL total volume). Separately, a solution of ApoA-I protein in PBS (0.1 mg/ml) was prepared. Using a microfluidic set-up, both solutions were simultaneously injected into a herringbone mixer, with a flow rate of 0.75 ml/min for the lipid solution and a rate of 6 ml/min for the ApoA-I solution. The obtained solution was concentrated by centrifugal filtration using a […] Vivaspin tube at 4000 rpm to obtain a volume of 5 mL. […]
(Pro-)drug recovery and hydrolysis were determined using the following procedure: an aliquot (200 μL) of the particle solution was dried under vacuum, acetonitrile (600 μL) was added and the suspension was sonicated for 20 minutes. The suspension was centrifuged to precipitate any solids and the remaining solution was analyzed using HPLC; except for the malonate derivatives which were analyzed using SFC-MS, and Dimethylmalonate which was analyzed by GC-MS.

Compound: CCCCCCCCCCCCCCCCCC(=O)O[C@@H]1CC[C@@H](C[C@@H](C)[C@@H]2CC(=O)[C@H](C)/C=C(\C)[C@@H](O)[C@@H](OC)C(=O)[C@H](C)C[C@H](C)/C=C/C=C/C=C(\C)[C@@H](OC)C[C@@H]3CC[C@@H](C)[C@@](O)(O3)C(=O)C(=O)N3CCCC[C@H]3C(=O)O2)C[C@H]1OC [Cis-Rapamycin]
- hydrolysis of the (pro-)drugs in the nanobiologics over time: hydrolysis was observed
